Measurements from patent US9629921B2, “Smart pro-drugs of serine protease inhibitors” (Trustees of Tufts College, priority 2002, dated 2017).
Where two headings read alike, the source gives them in different places.

Columns and labels:
DPP IV = DPP IV (Homo sapiens, UniProt P27487); experiment: In vitro DPP IV enzyme inhibition assay; inhibitors incubated at pH 2 or pH 8, then added to enzyme assay solution at pH 8.0; assay type: biochemical
Protocol: Inhibitors were incubated overnight in pH 2 or pH 8 solutions and then added directly to an enzyme assay solution at pH 8.0.
It is important to note that the x-axis in FIG. 3 refers to the concentration of the SPI, not the concentration of the released Xaa-boroPro.

Diabetic Mice = experiment: Toxicity (mortality) of Val-boroPro in diabetic mice; assay type: in vivo
serum DPP IV = serum DPP IV (Mus musculus, UniProt P28843); experiment: In vivo inhibition of serum DPP IV in db/db mice after oral dose; conditions: Diabetic-control = 100.00
Zucker rats = experiment: Toxicity (mortality) after oral dose in rats; assay type: in vivo
[1] = pH 2, ten minutes, read-out: IC50 Values at Ten Minutes pH 2
[2] = pH 8, ten minutes, read-out: IC50 Values at Ten Minutes pH 8
[3] = pH 2, read-out: Tetrapeptide Prodrugs (IC50) pH 2
[4] = pH 8, read-out: Tetrapeptide Prodrugs (IC50) pH 8

Chain of serum DPP IV (P28843 37-760 limits assumed): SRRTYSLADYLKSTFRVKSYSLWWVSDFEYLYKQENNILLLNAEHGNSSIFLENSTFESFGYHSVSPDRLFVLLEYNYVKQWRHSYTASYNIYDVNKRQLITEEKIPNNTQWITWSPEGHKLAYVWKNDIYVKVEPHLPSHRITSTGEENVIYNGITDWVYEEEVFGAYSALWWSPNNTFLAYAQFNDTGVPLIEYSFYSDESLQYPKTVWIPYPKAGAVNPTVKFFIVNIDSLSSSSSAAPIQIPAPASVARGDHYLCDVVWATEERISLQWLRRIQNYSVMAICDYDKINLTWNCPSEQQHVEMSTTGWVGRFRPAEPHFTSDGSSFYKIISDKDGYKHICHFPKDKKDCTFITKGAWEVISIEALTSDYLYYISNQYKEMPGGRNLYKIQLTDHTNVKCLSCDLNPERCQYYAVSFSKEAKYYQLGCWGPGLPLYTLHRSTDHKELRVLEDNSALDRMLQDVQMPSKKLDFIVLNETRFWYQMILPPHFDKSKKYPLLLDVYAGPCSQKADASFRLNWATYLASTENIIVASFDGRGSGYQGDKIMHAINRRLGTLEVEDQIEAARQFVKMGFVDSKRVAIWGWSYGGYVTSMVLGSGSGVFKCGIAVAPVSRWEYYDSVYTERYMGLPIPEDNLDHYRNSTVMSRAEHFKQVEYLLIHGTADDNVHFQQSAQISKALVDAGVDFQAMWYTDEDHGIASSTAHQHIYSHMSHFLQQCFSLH
Chain of DPP IV (P27487 whole entry, species assumed): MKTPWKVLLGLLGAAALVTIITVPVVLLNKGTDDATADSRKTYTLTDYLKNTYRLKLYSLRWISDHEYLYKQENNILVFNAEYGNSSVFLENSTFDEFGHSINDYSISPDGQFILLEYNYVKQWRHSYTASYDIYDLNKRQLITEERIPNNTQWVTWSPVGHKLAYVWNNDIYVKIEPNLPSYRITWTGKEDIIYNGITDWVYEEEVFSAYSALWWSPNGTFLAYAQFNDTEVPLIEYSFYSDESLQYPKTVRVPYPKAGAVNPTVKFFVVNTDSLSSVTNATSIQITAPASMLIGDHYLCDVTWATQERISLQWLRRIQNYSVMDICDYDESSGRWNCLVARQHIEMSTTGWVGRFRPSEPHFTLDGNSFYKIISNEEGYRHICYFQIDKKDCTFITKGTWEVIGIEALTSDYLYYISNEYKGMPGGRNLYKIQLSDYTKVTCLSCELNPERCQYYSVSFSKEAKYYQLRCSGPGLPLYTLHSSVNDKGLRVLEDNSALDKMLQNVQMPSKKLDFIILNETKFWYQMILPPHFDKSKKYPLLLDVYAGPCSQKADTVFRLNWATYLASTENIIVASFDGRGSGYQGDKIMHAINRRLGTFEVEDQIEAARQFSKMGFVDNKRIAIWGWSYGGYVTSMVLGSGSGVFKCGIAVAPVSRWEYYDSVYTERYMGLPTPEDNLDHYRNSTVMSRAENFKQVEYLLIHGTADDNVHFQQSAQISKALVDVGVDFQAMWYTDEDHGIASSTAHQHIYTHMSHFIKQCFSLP

CC(NC(=O)C1CCCN1C(=O)C(N)Cc1ccc(O)cc1)C(=O)N1CCCC1B(O)O (centres unmarked) [TyrProAlaboroPro, Tyrosine-Proline-Alanine-Proline Boronic Acid]
IC50 (DPP IV; [1]): 15 nM | IC50 (DPP IV; [2]): 17 nM

CC(NC(=O)C(N)C1CCCCC1)C(=O)N1CCCC1C(=O)N1CCCC1B(O)O (centres unmarked) [ChgAlaProboroPro]
IC50 (DPP IV; [1]): 2000 nM | IC50 (DPP IV; [2]): 30000 nM

NC(Cc1ccc(O)cc1)C(=O)N1CCCC1C(=O)NC(Cc1ccccc1)C(=O)N1CCCC1B(O)O (centres unmarked) [TyrProPheboroPro]
IC50 (DPP IV; IC50 Values at Ten Minutes pH 2, pH 2, ten minutes): 50 nM | IC50 (DPP IV; IC50 Values at Ten Minutes pH 8, pH 8, ten minutes): 60 nM

CC(NC(=O)C1CCCN1C(=O)C(N)C(C)(C)C)C(=O)N1CCCC1B(O)O (centres unmarked) [tBugProAlaboroPro]
IC50 (DPP IV; [1]): 14 nM | IC50 (DPP IV; [2]): 18 nM

CC(C)[C@H](N)C(=O)N1CCC[C@H]1B(O)O [Val-boroPro]
MORTALITY (Diabetic Mice; 0.035 mg/kg, Diabetic Mice (starved), 8 animals dosed, project 011050): 0 | MORTALITY (Diabetic Mice; 0.035 mg/kg, Diabetic Mice, 7 animals dosed, project 010757): 0 | MORTALITY (Diabetic Mice; 0.035 mg/kg, Diabetic Mice, 8 animals dosed, project 011050 group 3): 0 | MORTALITY (Diabetic Mice; 0.35 mg/kg, Diabetic Mice, 7 animals dosed, project 010757): 0 | Toxic effect in mice (Diabetic Mice; 3.5 mg/kg): no noticeable toxic effect | MORTALITY (Diabetic Mice; 3.5 mg/kg, Diabetic Mice, 7 animals dosed, project 010757): 0 | Toxicity to mice (Diabetic Mice; mice): apparently not at all | In vivo inhibition of serum DPP IV (serum DPP IV; 0.0025 mg/kg, 1 hr Post Rx-Glucose): 94.52 | In vivo inhibition of serum DPP IV (serum DPP IV; 0.0025 mg/kg, 4 hrs Post Rx-Glucose): 93.30 | In vivo inhibition of serum DPP IV (serum DPP IV; 0.01 mg/kg, 1 hr Post Rx-Glucose): 59.36 | In vivo inhibition of serum DPP IV (serum DPP IV; 0.01 mg/kg, 4 hrs Post Rx-Glucose): 58.85 | In vivo inhibition of serum DPP IV (serum DPP IV; 0.025 mg/kg, 1 hr Post Rx-Glucose): 47.49 | In vivo inhibition of serum DPP IV (serum DPP IV; 0.025 mg/kg, 4 hrs Post Rx-Glucose): 39.23 | MORTALITY (Zucker rats; 0.035 mg/kg Oral, Zucker Lean, 4 animals dosed, project 002969): 1 | MORTALITY (Zucker rats; 0.035 mg/kg Oral, Zucker Obese, 4 animals dosed, project 002969): 4 | MORTALITY (Zucker rats; 0.35 mg/kg Oral, Zucker Lean, 4 animals dosed, project 002969): 4 | MORTALITY (Zucker rats; 0.35 mg/kg Oral, Zucker Obese, 4 animals dosed, project 002969): 4 | MORTALITY (Zucker rats; 1.75 mg/kg Oral, Zucker Lean, 4 animals dosed, project 002969): 2 | MORTALITY (Zucker rats; 1.75 mg/kg Oral, Zucker Obese, 4 animals dosed, project 002969): 2 | MORTALITY (Zucker rats; 5 mg/kg Oral, Zucker Lean, 3 animals dosed, project 002898): 3 | MORTALITY (Zucker rats; 5 mg/kg Oral, Zucker Obese, 4 animals dosed, project 002898): 4 | Mortality (rats killed) (Zucker rats; Zucker rats, dose of 0.035 mg/kg): four out of four | Toxicity to rats (Zucker rats; rats): quite toxic to rats

CC(N)C(=O)N1CCCC1C(=O)NC(C(=O)N1CCCC1B(O)O)C(C)C (centres unmarked) [AlaProValboroPro]
IC50 (DPP IV; [3]): 20 nM | IC50 (DPP IV; [1]): 20 nM | IC50 (DPP IV; [4]): 21 nM | IC50 (DPP IV; [2]): 21 nM

CC(C)C(NC(=O)C1CCCN1C(=O)CN)C(=O)N1CCCC1B(O)O (centres unmarked) [GlyProValboroPro]
IC50 (DPP IV; [3]): 17 nM | IC50 (DPP IV; [1]): 17 nM | IC50 (DPP IV; [4]): 46 nM | IC50 (DPP IV; [2]): 46 nM

CCC(NC(=O)C(C)NC(=O)C(N)C1CCCCC1)C(=O)N1CCCC1B(O)O (centres unmarked) [ChgAlaEtgboroPro]
IC50 (DPP IV; [1]): 600 nM | IC50 (DPP IV; [2]): 802 nM

CCC(NC(=O)C1CCN1C(=O)C(N)C1CCCCC1)C(=O)N1CCCC1B(O)O (centres unmarked) [ChgAzeEtgboroPro]
IC50 (DPP IV; [1]): 15 nM | IC50 (DPP IV; [2]): 16 nM

CC(N)C(=O)NC(C)C(=O)NC(C(=O)N1CCCC1B(O)O)C(C)C (centres unmarked) [AlaAlaValboroPro]
IC50 (DPP IV; [1]): 2000 nM | IC50 (DPP IV; [2]): 25000 nM

ChgPipEtgboroPro
IC50 (DPP IV; [1]): 19 nM | IC50 (DPP IV; [2]): 14 nM

O=C(C1CCCN1C(=O)C1CCCN1C(=O)C1CCCN1)N1CCCC1B(O)O (centres unmarked) [ProProProboroPro]
IC50 (DPP IV; [3]): 10000 nM | IC50 (DPP IV; [1]): 10000 nM

NCC(=O)N1CCCC1C(=O)N1CCCC1C(=O)N1CCCC1B(O)O (centres unmarked) [GlyProProboroPro]
IC50 (DPP IV; [3]): 9000 nM | IC50 (DPP IV; [1]): 8600 nM | IC50 (DPP IV; [2]): 20000 nM

NC(C(=O)N1CCCC1C(=O)NC(C(=O)N1CCCC1B(O)O)C1CCCCC1)C1CCCCC1 (centres unmarked) [ChgProChgboroPro]
IC50 (DPP IV; [1]): 14 nM | IC50 (DPP IV; [2]): 14 nM

ChgDhpEtgboroPro
IC50 (DPP IV; [1]): 15 nM | IC50 (DPP IV; [2]): 17 nM
